From ChEMBL document CHEMBL1130491, “Nonpeptide bradykinin antagonist analogs based on a model of a Sterling-Winthrop nonpeptide bradykinin antagonist overlapped with cyclic hexapeptide bradykinin antagonist peptides” (Bioorg Med Chem Lett, 1997) come the findings set out here.

SMILES strings stand for the structures.

Test [1] can be described thus: Binding affinity towards human Bradykinin receptor, activity expressed as Kd.
The target in the next test is Substance-P receptor (Homo sapiens, UniProt P25103). Put plainly: Binding affinity towards Tachykinin receptor 1, activity expressed as Kd.
Substance-P receptor, sequence (P25103 whole entry): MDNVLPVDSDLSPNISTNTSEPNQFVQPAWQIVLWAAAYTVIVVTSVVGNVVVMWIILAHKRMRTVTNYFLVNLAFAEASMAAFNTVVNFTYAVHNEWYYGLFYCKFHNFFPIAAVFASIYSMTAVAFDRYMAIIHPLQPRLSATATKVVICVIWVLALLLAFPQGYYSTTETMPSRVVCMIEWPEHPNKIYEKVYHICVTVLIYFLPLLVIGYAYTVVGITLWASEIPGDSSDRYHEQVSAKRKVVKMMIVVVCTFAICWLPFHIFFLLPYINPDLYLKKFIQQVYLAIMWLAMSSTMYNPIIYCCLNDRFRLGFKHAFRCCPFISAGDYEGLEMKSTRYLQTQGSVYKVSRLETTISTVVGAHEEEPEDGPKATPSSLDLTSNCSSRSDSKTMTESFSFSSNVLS

In general, Kd refers to a measure of binding affinity in units of concentration. In the case of `CCCC[N+](CCCC)(CCCC)Cc1ccc(NC(=O)[C@@H](Cc2ccc3ccccc3c2)N=C(NC2CCCCC2)NC2CCCCC2)cc1`, the figures for the Kd (in test [1]; on Substance-P receptor) were 0.079 µM and 0.29 µM, respectively. Turning to `NCc1ccc(NC(=O)[C@@H](Cc2ccc3ccccc3c2)N=C(NC2CCCCC2)NC2CCCCC2)cc1`, binding in test [1] was put at a Kd of 0.45 µM.

As to `N=C(N)NCc1ccc(NC(=O)[C@H](Cc2ccc3ccccc3c2)N=C(NC2CCCCC2)NC2CCCCC2)cc1`, the Kd in test [1] turned out to be 0.33 µM; on Substance-P receptor it was 1.1 µM. On the same counts, the results for `CCCC[N+](CCCC)(CCCC)Cc1ccc(NC(=O)[C@H](Cc2ccc3ccccc3c2)N=C(NC2CCCCC2)NC2CCCCC2)cc1` are 0.098 µM and 0.54 µM. Regarding `O=C(Nc1ccc(CO)cc1)[C@H](Cc1ccc2ccccc2c1)N/C(=N/C1CCCCC1)NC1CCCCC1`, the Kd in test [1] came out at 2.1 µM. For the compound `N=C(N)NCCC[C@@H](NC(=O)C12CC3CC(CC(C3)C1)C2)C(=O)NCc1ccc(NC(=O)[C@H](Cc2ccc3ccccc3c2)N=C(NC2CCCCC2)NC2CCCCC2)cc1`, binding in test [1] was put at a Kd of 0.99 µM. As for `NC(N)=NCCC[C@H](N)C(=O)NCc1ccc(NC(=O)[C@H](Cc2ccc3ccccc3c2)N=C(NC2CCCCC2)NC2CCCCC2)cc1`, the values for the Kd (in test [1]; at Substance-P receptor) were 0.39 µM and 1.5 µM, respectively.

`CCCC[P+](CCCC)(CCCC)Cc1ccc(NC(=O)[C@H](Cc2ccc3ccccc3c2)N=C(NC2CCCCC2)NC2CCCCC2)cc1`: the Kd in test [1] amounted to 0.34 µM; on Substance-P receptor, 0.67 µM. In the same order, the values of `CCCC[P+](CCCC)(CCCC)Cc1ccc(NC(=O)[C@H](Cc2ccc3ccccc3c2)NC(=O)NC2CCCCC2)cc1` are 1.6 µM and 1.3 µM. In the case of `CCCC[P+](CCCC)(CCCC)Cc1ccc(NC(=O)[C@@H](Cc2ccc3ccccc3c2)N=C(NC2CCCCC2)NC2CCCCC2)cc1`, the values for the Kd (in test [1]; on Substance-P receptor) were 0.044 µM and 0.37 µM, respectively. Compound `O=C(Nc1ccc(CO)cc1)[C@@H](Cc1ccc2ccccc2c1)N=C(NC1CCCCC1)NC1CCCCC1` displayed a Kd in test [1] of 1.5 µM.

As for `CC/N=C(\NCC)NCc1ccc(NC(=O)[C@H](Cc2ccc3ccccc3c2)N=C(NC2CCCCC2)NC2CCCCC2)cc1`, the Kd turned out to be 0.46 µM in test [1] and 1.8 µM at Substance-P receptor. Turning to `NCc1ccc(NC(=O)[C@H](Cc2ccc3ccccc3c2)N=C(NC2CCCCC2)NC2CCCCC2)c(C(=O)O)c1`, the Kd stood at 0.69 µM in test [1] and 3.8 µM on Substance-P receptor. As for `NCc1ccc(N(CCC(=O)O)C(=O)[C@H](Cc2ccc3ccccc3c2)N=C(NC2CCCCC2)NC2CCCCC2)cc1`, in test [1], the Kd is 1.5 µM. For `N=C(N)NCc1ccc(NC(=O)[C@@H](Cc2ccc3ccccc3c2)N=C(NC2CCCCC2)NC2CCCCC2)cc1`, the Kd in test [1] stood at 0.2 µM; at Substance-P receptor, 0.86 µM. Take `NCc1ccc(NC(=O)[C@H](Cc2ccc3ccccc3c2)N=C(NC2CCCCC2)NC2CCCCC2)cc1`: the Kd came to 0.8 µM in test [1] and 1.3 µM on Substance-P receptor. For the compound `NC(N)=NCCC[C@@H](N)C(=O)NCc1ccc(NC(=O)[C@H](Cc2ccc3ccccc3c2)N=C(NC2CCCCC2)NC2CCCCC2)cc1`, the affinity in test [1], expressed as Kd, was 0.23 µM.
